Measured values: US10981902B2 (Merck Sharp & Dohme Corp., priority 2017, dated 2021)

Molecular target: T1, human M4 muscarinic acetylcholine receptor (Homo sapiens, UniProt P08173)
T1 construct: expressed in transfected cells; host or cells: CHO-K1
T1 sequence (P08173 1-479): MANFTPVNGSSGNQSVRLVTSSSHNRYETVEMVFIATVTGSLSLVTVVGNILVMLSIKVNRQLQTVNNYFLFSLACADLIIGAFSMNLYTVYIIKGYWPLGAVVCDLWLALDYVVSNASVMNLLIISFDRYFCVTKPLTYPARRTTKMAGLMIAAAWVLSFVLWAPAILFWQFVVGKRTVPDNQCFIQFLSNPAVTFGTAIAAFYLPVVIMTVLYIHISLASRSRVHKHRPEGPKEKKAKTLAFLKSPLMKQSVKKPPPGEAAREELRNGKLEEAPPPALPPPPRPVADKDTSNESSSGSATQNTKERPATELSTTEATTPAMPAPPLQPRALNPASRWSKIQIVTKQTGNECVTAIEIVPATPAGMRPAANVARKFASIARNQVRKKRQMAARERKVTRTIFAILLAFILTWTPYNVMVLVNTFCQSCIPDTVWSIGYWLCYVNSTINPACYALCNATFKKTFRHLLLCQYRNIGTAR
Assay: human FLIPR-based M4 PAM assay (calcium mobilization, CHO-K1 cells with human M4 receptor and Gαqi5)
Type: cell-based
Details: inflection point (IP) of dose response curve, acetylcholine added at 20% of maximum response, read-out: M4 FLIPPR Hu IP
Procedure, shortened: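 CHO-K1 cells stably expressing human M4 and Gαqi5, dye-loaded ~1 h at 37 °C, read on FLIPR Tetra. Test compound added at increasing concentrations 4 min before acetylcholine at an EC20 concentration, sometimes followed by an EC70 addition. Dose-response curves fit to a 4-parameter logistic; result is the curve inflection point.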

EC50 [nM]	Structure (SMILES)
43	CC1(Cc2ncc(-c3cc4c(nc3-c3ccc5ccc(F)nc5c3)C(=O)CC4)o2)CCCC1 [Example 43, 2-(2-fluoroquinolin-7-yl)-3-(2-((1-methylcyclopentyl)methyl)oxazol-5-yl)-5,6-dihydro-7H-cyclopenta[b]pyridin-7-one]
130	Cc1nnc2cc(-c3nc(C#N)ccc3-c3cnc(CC(C)(C)C)o3)ccn12 [Example 35, 6-(3-methyl-[1,2,4]-triazolo[4,3-a]pyridin-7-yl)-5-(2-neopentyl-oxazol-5-yl)picolino-nitrile]
45	COc1cc2ccc(-c3nc(C)ccc3-c3cnc(Cc4ccc(F)cc4)o3)cc2nn1 [Example 54, 2-(4-fluorobenzyl)-5-(2-(3-methoxycinnolin-7-yl)-6-methylpyridin-3-yl)oxazole]
42	CC(C)(C)CCc1ncc(-c2ccc(C#N)nc2-c2ccn3ccnc3c2)o1 [Example 66, 5-(2-(3,3-dimethylbutyl)oxazol-5-yl)-6-(imidazo[1,2-a]pyridin-7-yl) picolinonitrile]
34	CN1Cc2ncc(-c3nc(C#N)ccc3-c3cnc(CC4(C)CCCC4)o3)cc2C1=O [Example 12, 6-(6-methyl-5-oxo-6,7-dihydro-5H-pyrrolo[3,4-b]-pyridin-3-yl)-5-(2-((1-methyl-cyclopentyl)-methyl)oxazol-5-yl)picolinonitrile]
172	COc1cc2ccc(-c3nc(C(F)F)ccc3-c3cnc(CC(C)(C)C)o3)cc2nn1 [Example 14, 5-(6-(difluoro-methyl)-2-(3-methoxycinnolin-7-yl)pyridin-3-yl)-2-neopentyloxazole]
25	N#Cc1ccc(-c2cnc(C[C@@H]3CC[C@H](F)C3)o2)c(-c2ccc3cccnc3c2)n1 [Example 101, 5-(2-(((1S,3S)-3-fluorocyclopentyl)methyl)oxazol-5-yl)-6-(quinolin-7-yl)picolinonitrile]
14	CN1Cc2ccc(-c3nc(C#N)ccc3-c3cnc(CC4(C)CCCC4)o3)cc2C1=O [Example 6, 6-(2-methyl-3-oxo-isoindolin-5-yl)-5-(2-((1-methyl-cyclopentyl)methyl)-oxazol-5-yl)picolino-nitrile]
8	N#Cc1ccc(-c2cnc(CC3CCCC3)o2)c(N2CCn3ccnc3C2)n1 [Example 55, 5-(2-(cyclopentylmethyl)oxazol-5-yl)-6-(5,6-dihydroimidazo[1,2-a]pyrazin-7(8H)-yl)picolinonitrile]
51	COc1cc2ccc(-c3nc(C)ccc3-c3cnc(C(F)(F)C4CCCC4)o3)cc2nn1 [Example 102, 2-(cyclopentyldifluoromethyl)-5-(2-(3-methoxycinnolin-7-yl)-6-methylpyridin-3-yl)oxazole]
45	CN1Cc2ccc(-c3nc4c(cc3-c3cnc(CC5(C)CCCC5)o3)CCC4=O)cc2C1=O [Example 41, 2-(2-methyl-3-oxoisoindolin-5-yl)-3-(2-((1-methyl-cyclopentyl)-methyl)oxazol-5-yl)-5,6-dihydro-7H-cyclopenta[b]-pyridin-7-one]
158	Cc1cn2ccc(-c3nc(C#N)ccc3-c3cnc(CC4(F)CC4)o3)cc2n1 [Example 100, 5-(2-((1-fluorocyclopropyl)methyl)oxazol-5-yl)-6-(2-methyl-imidazo[1,2-a]pyridin-7-yl)picolinonitrile]
101	Cc1cn2ccc(-c3nc(C#N)ccc3-c3cnc(CC(C)(C)F)o3)cc2n1 [Example 86, 5-(2-(2-fluoro-2-methylpropyl)oxazol-5-yl)-6-(2-methylimidazo [1,2-a]pyridin-7-yl) picolinonitrile]
35	CC(C)(Cc1ncc(-c2ccc(C(F)F)nc2-c2ccn3ccnc3c2)o1)C(F)(F)F [Example 25, 5-(6-(difluoromethyl)-2-(imidazo[1,2-a]-pyridin-7-yl)pyridin-3-yl)-2-(3,3,3-trifluoro-2,2-dimethylpropyl)-oxazole]
163	CN1Cc2ncc(-c3nc(C(F)F)ccc3-c3cnc(CC(C)(C)C)o3)cc2C1=O [Example 20, 3-(6-(difluoro-methyl)-3-(2-neopentyloxazol-5-yl)pyridin-2-yl)-6-methyl-6,7-dihydro-5H-pyrrolo[3,4-b]-pyridin-5-one]
82	N#Cc1ccc(-c2cnc(CC3(C(F)(F)F)CC3)o2)c(-c2ccn3ccnc3c2)n1 [Example 21, 6-(imidazo[1,2-a]-pyridin-7-yl)-5-(2-((1-(trifluoromethyl)-cyclopropyl)methyl)-oxazol-5-yl)picolino-nitrile]
107	Cc1nc2cc(-c3nc(C#N)ccc3-c3cnc(CC(C)(C)C)o3)ccn2n1 [Example 34, 6-(2-methyl[1,2,4]-triazolo[1,5-a]pyridin-7-yl)-5-(2-neopentyl-oxazol-5-yl)picolino-nitrile]

EC50 [nM]	Structure (SMILES)
42	CC1(Cc2ncc(-c3cc4c(nc3-c3cnc5c(c3)C(=O)NC5)C(F)CC4)o2)CCCC1 (single isomer, unassigned) [Example 45, 3-(7-fluoro-3-(2-((1-methylcyclopentyl)methyl)oxazol-5-yl)-6,7-dihydro-5H-cyclopenta[b]pyridin-2-yl)-6,7-dihydro-5H-pyrrolo[3,4-b]pyridin-5-one]
73	CC(C)(C)Cc1ncc(-c2ccc(C(F)F)nc2-c2ccn3ccnc3c2)o1 [Example 19, 5-(6-(difluoro-methyl)-2-(imidazo-[1,2-a]pyridin-7-yl)pyridin-3-yl)-2-neopentyloxazole]
61	CC(C)(C)Cc1ncc(-c2ccc(C#N)nc2-c2ccn3ccnc3c2)o1 [Example 16, 6-(imidazo[1,2-a]-pyridin-7-yl)-5-(2-neopentyloxazol-5-yl)picolinonitrile]
143	Cc1cn2ccc(-c3nc(C#N)ccc3-c3cnc(CCC(O)C(F)(F)F)o3)cc2n1 (stereo not drawn) [Example 106, 6-(2-methylimidazo[1,2-a]pyridin-7-yl)-5-(2-(4,4,4-trifluoro-3-hydroxybutyl)oxazol-5-yl)picolinonitrile]
13	Cc1ccc(-c2cnc(CC3CCCC3)o2)c(-c2ccc3c(c2)C(=O)N(C)C3)n1 [Example 46, 6-(3-(2-(cyclopentylmethyl)oxazol-5-yl)-6-methylpyridin-2-yl)-2-methylisoindolin-1-one]
137	CC(Cc1ncc(-c2ccc(C#N)nc2-c2ccn3ccnc3c2)o1)C(F)F (stereo not drawn) [Example 94, 5-(2-(3,3-difluoro-2-methylpropyl)oxazol-5-yl)-6-(imidazo[1,2-a]pyridin-7-yl) picolinonitrile]
17	N#Cc1ccc(-c2cnc(CC3CCCC3)o2)c(N2CCn3ccnc3C2)n1 [Example 58, 5-(2-(cyclopentylmethyl)oxazol-5-yl)-6-(5,6-dihydroimidazo[1,2-a]pyrazin-7(8H)-yl) picolinonitrile]
24	Cc1ccc(-c2cnc(Cc3ccccc3)o2)c(-c2ccc3cccnc3c2)n1 [Example 47, 2-benzyl-5-(6-methyl-2-(quinolin-7-yl)pyridin-3-yl)oxazole]
113	CC(C)(C)Cc1ncc(-c2cc(F)cnc2-c2ccn3ccnc3c2)o1 [Example 27, 5-(5-fluoro-2-(imidazo[1,2-a]-pyridin-7-yl)-pyridin-3-yl)-2-neopentyloxazole]
69	Cc1cn2ccc(-c3nc(C#N)ccc3-c3cnc(CC(C)(C)C)o3)cc2n1 [Example 32, 6-(2-methylimidazo-[1,2-a]pyridin-7-yl)-5-(2-neopentyloxazol-5-yl)picolinonitrile]
182	Cc1nc2cc(-c3nc(C#N)ccc3-c3cnc(CCC(C)(F)F)o3)ccn2n1 [Example 112, 5-(2-(3,3-difluorobutyl)oxazol-5-yl)-6-(2-methyl-[1,2,4]triazolo [1,5-a]pyridin-7-yl)picolinonitrile]
117	Clc1ccc(-c2cnc(CC3CCCC3)o2)c(N2CCn3ccnc3C2)n1 [Example 57, 5-(6-chloro-2-(5,6-dihydroimidazo[1,2-a]pyrazin-7(8H)-yl)pyridin-3-yl)-2-(cyclopentylmethyl) oxazole]
231	N#Cc1ccc(-c2cnc(CC(O)C3CC3)o2)c(-c2ccc3cccnc3c2)n1 (stereo not drawn) [Example 68, 5-(2-(2-cyclopropyl-2-hydroxyethyl)oxazol-5-yl)-6-(quinolin-7-yl)picolinonitrile]
105	FC1(Cc2ncc(-c3cccnc3-c3ccn4ccnc4c3)o2)CCCC1 [Example 78, 2-((1-fluorocyclopentyl)methyl)-5-(2-(imidazo[1,2-a]pyridin-7-yl)pyridin-3-yl) oxazole]
136	N#Cc1ccc(-c2cnc(CCC(F)(F)F)o2)c(-c2ccn3ccnc3c2)n1 [Example 67, 6-(imidazo[1,2-a]pyridin-7-yl)-5-(2-(3,3,3-trifluoropropyl)oxazol-5-yl)picolinonitrile]
128	CC(C)(C)Cc1ncc(-c2ccc(C(F)F)nc2-c2ccc3cccnc3c2)o1 [Example 13, 5-(6-(difluoro-methyl)-2-(quinolin-7-yl)pyridin-3-yl)-2-neopentyloxazole]
